Among the data in US9809573B2, “Substituted pyridine derivatives useful as GSK-3 inhibitors” (priority 2013, dated 2017) are IC50 values, retold here.

Where two headings read alike, the source gives them in different places.

One test deals with GSK3β (Homo sapiens, UniProt P49841). In words: GSK3β kinase assay (Caliper LabChip3000, fluoresceinated peptide substrate). In kind it is biochemical. Summed up: (§1)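 Eleven-point compound titrations (10 mM DMSO stocks) incubated with kinase and fluorescent peptide for 20 h at room temperature before EDTA quench. Substrate-to-product conversion measured by microfluidic mobility shift; IC50 from non-linear fitting.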
Sequence of GSK3β (P49841 whole entry, species assumed): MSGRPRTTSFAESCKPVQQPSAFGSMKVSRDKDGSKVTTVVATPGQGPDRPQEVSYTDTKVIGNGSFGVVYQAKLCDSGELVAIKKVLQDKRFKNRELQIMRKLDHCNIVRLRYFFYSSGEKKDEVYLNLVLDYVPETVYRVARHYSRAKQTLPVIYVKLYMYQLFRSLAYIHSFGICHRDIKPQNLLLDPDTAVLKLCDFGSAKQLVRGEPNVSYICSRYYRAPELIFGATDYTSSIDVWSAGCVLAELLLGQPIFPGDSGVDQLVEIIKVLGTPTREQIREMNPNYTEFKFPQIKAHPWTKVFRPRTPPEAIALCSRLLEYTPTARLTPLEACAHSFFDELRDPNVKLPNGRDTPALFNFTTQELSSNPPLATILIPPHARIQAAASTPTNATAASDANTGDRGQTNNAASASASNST

For a further test, the target named is GSK3α (Homo sapiens, UniProt P49840). In words: biochemical. Summed up: as §1
Sequence of GSK3α (P49840 whole entry, species assumed): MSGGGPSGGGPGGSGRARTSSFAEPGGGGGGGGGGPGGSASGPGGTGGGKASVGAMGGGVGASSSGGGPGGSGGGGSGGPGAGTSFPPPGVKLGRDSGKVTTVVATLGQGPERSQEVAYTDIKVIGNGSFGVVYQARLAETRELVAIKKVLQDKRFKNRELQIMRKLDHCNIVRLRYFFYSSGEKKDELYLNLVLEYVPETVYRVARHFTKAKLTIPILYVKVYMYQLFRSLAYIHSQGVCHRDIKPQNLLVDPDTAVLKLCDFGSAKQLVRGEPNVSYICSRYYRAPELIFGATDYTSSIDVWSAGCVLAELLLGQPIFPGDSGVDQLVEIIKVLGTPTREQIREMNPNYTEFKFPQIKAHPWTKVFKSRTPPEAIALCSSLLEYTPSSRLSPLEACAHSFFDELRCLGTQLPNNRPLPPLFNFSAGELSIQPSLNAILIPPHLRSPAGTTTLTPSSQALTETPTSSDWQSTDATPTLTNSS
The test system of another test is pTau. In words: pTau assay (method not described). The class given is cell-based.
Where [1] appears, read: second value of the cell, 250 pM enzyme, 20 uM ATP, 20 hours at room temperature, read-out: GSK3β/α (nM): GSK3α IC50.
Setting [2] is: first value of the cell, 250 pM enzyme, 20 uM ATP, 20 hours at room temperature, read-out: GSK3β/α (nM): GSK3β IC50.

On to `O=C(Nc1cncc(N2CCOCC2)c1)c1ccnc(NC(=O)C2CC2)c1` [Example 109, 2-(cyclopropanecarboxamido)-N-(5-morpholinopyridin-3-yl)isonicotinamide], for which the figures for the IC50 on GSK3β, on GSK3α (setting [1]) and in the test on pTau (read-out: pTau) were 73 nM, 17 nM and 2000 nM, respectively.
The matching figures for `O=C(Nc1cncc(-c2ccccc2)c1)c1ccnc(NC(=O)C2CCCC2)c1` [Example 232, 2-(cyclopentanecarboxamido)-N-(5-phenylpyridin-3-yl)isonicotinamide]: 1.2 nM, 0.51 nM and 330 nM.
Turning to `O=C(Nc1cncc2ccccc12)c1ccnc(NC(=O)C2CC2)c1` [Example 6, 2-(Cyclopropanecarboxamido)-N-(isoquinolin-4-yl)isonicotinamide], the results for the IC50 at GSK3β (setting [2]), at GSK3α (setting [1]) and with pTau (read-out: pTau) were 7.2 nM, 2.7 nM and 190 nM, respectively.
`O=C(Nc1cnccc1-c1ccccc1)c1ccnc(NC(=O)C2CCC2)c1` [Example 212, 2-(Cyclobutanecarboxamido)-N-(4-phenylpyridin-3-yl)isonicotinamide]: the values for the IC50 against GSK3β, against GSK3α and in the test with pTau (read-out: pTau (nM)) were 4.3 nM, 4.4 nM and 96 nM, respectively.
Regarding `Cc1cc(-c2ccncc2NC(=O)c2ccnc(NC(=O)C3CC3)c2)cs1` [Example 43, 2-(Cyclopropanecarboxamido)-N-(4-(5-methylthiophen-3-yl)pyridin-3-yl)isonicotinamide], the IC50 is 2.8 nM at GSK3β (setting [2]), 0.85 nM on GSK3α (setting [1]) and 49 nM with pTau (read-out: pTau).
On the same counts, the results for `N#Cc1ccc(-c2ccncc2NC(=O)c2ccnc(NC(=O)C3CC3)c2)c(F)c1` [Example 85, N-(4-(4-cyano-2-fluorophenyl)pyridin-3-yl)-2-(cyclopropanecarboxamido)isonicotinamide] are 2.9 nM, 0.94 nM and 33 nM.
On to `CCC1(c2cc(Cl)ncc2NC(=O)c2ccnc(NC(=O)C(C)(C)C)c2)OCCO1` [Example 210, N-(6-chloro-4-(2-ethyl-1,3-dioxolan-2-yl)pyridin-3-yl)-2-pivalamidoisonicotinamide], for which the IC50 at GSK3β (setting [2]) is 3.6 nM; at GSK3α (setting [1]), 1.3 nM; with pTau (read-out: pTau) it was 250 nM.
The matching figures for `O=C(Nc1cnccc1-c1ccccc1)c1ccnc(NC(=O)[C@@H]2C[C@H]2c2ccccc2)c1` (relative stereo) [Example 99, 2-((Trans)-2-phenylcyclopropanecarboxamido)-N-(4-phenylpyridin-3-yl)isonicotinamide]: 1.8 nM, 24 nM and 4500 nM.
The matching figures for `CC(C)C(=O)Nc1cc(C(=O)Nc2cncc(-c3ccccc3Cl)c2)ccn1` [Example 195, N-(5-(2-chlorophenyl)pyridin-3-yl)-2-isobutyramidoisonicotinamide]: 10 nM, 1.5 nM and 107 nM.
Turning to `O=C(Nc1cnccc1N1CCC(F)(F)CC1)c1ccnc(NC(=O)C2CC2)c1` [Example 45, 2-(Cyclopropanecarboxamido)-N-(4-(4,4-difluoropiperidin-1-yl)pyridin-3-yl)isonicotinamide], the figures for the IC50 on GSK3β, against GSK3α and in the test with pTau (read-out: pTau (nM)) were 0.22 nM, 0.19 nM and 5.1 nM, respectively.
Regarding `CC(C)(C)C(=O)Nc1cc(C(=O)Nc2cnccc2N2CCC(F)(F)CC2)ccn1` [Example 208, N-(4-(4,4-difluoropiperidin-1-yl)pyridin-3-yl)-2-pivalamidoisonicotinamide], the IC50 against GSK3β came to 4.2 nM; on GSK3α (setting [1]), 3.1 nM; in the test with pTau (read-out: pTau), 120 nM.
For `O=C(Nc1cncc(-c2cccc3[nH]ccc23)c1)c1ccnc(NC(=O)C2CC2)c1` [Example 147, N-(5-(1H-indol-4-yl)pyridin-3-yl)-2-(cyclopropanecarboxamido)isonicotinamide], the IC50 came to 27 nM at GSK3β (setting [2]), 5.9 nM on GSK3α (setting [1]) and 950 nM in the test on pTau (read-out: pTau).
The matching figures for `CCCc1ccc(-c2ccncc2NC(=O)c2ccnc(NC(=O)C3CC3)c2)cc1` [Example 72, 2-(Cyclopropanecarboxamido)-N-(4-(4-propylphenyl)pyridin-3-yl)isonicotinamide]: 3.1 nM, 6.4 nM and 250 nM.
Take `CC1CN(c2ccncc2NC(=O)c2ccnc(NC(=O)C3CC3)c2)CCO1` (racemic) [Example 46, 2-(Cyclopropanecarboxamido)-N-(4-(2-methylmorpholino)pyridin-3-yl)isonicotinamide]: the figures for the IC50 against GSK3β, against GSK3α and in the test on pTau (read-out: pTau (nM)) were 0.54 nM, 0.37 nM and 57 nM, respectively.
In the case of `O=C(Nc1cncc(C2CCC2)c1)c1ccnc(NC(=O)C2CC2)c1` [Example 113, N-(5-cyclobutylpyridin-3-yl)-2-(cyclopropanecarboxamido)isonicotinamide], the values for the IC50 against GSK3β, on GSK3α (setting [1]) and with pTau (read-out: pTau) were 1 nM, 1.75 nM and 330 nM, respectively.
As to `CC(C)C(=O)Nc1cc(C(=O)Nc2cnccc2OCC(F)(F)F)ccn1` [Example 203, 2-Isobutyramido-N-(4-(2,2,2-trifluoroethoxy)pyridin-3-yl)isonicotinamide], the results for the IC50 at GSK3β, at GSK3α (setting [1]) and with pTau (read-out: pTau) were 0.72 nM, 0.35 nM and 70 nM, respectively.
On the same counts, the results for `Cc1ccc(-c2cncc(NC(=O)c3ccnc(NC(=O)C4CC4)c3)c2)cn1` [Example 162, 2-(cyclopropanecarboxamido)-N-(6′-methyl-[3,3′-bipyridin]-5-yl)isonicotinamide] are 2.5 nM, 1.1 nM and 115 nM.
Take `O=C(Nc1cnccc1-c1ccc(C(F)(F)F)cc1Cl)c1ccnc(NC(=O)C2CC2)c1` [Example 70, N-(4-(2-chloro-4-(trifluoromethyl)phenyl)pyridin-3-yl)-2-(cyclopropanecarboxamido)isonicotinamide]: the IC50 came to 7 nM on GSK3β (setting [2]), 4.5 nM on GSK3α (setting [1]) and 280 nM in the test with pTau (read-out: pTau).
Consider `O=C(Nc1cncc(-c2cc(F)ccc2F)c1)c1ccnc(NC(=O)C2CC2)c1` [Example 142, 2-(cyclopropanecarboxamido)-N-(5-(2,5-difluorophenyl)pyridin-3-yl)isonicotinamide], for which the IC50 was 1.5 nM on GSK3β, 0.76 nM against GSK3α and 100 nM in the test with pTau (read-out: pTau (nM)).
Consider `O=C(Nc1cncc(-c2ccc(F)cc2F)c1)c1ccnc(NC(=O)C2CC2)c1` [Example 114, 2-(cyclopropanecarboxamido)-N-(5-(2,4-difluorophenyl)pyridin-3-yl)isonicotinamide], for which the IC50 at GSK3β (setting [2]) stood at 1.6 nM; at GSK3α (setting [1]), 1.3 nM; in the test on pTau (read-out: pTau), 990 nM.
The matching figures for `O=C(Nc1cnccc1-c1ccc(OC(F)(F)F)cc1F)c1ccnc(NC(=O)C2CC2)c1` [Example 94, 2-(Cyclopropanecarboxamido)-N-(4-(2-fluoro-4-(trifluoromethoxy)phenyl)pyridin-3-yl)isonicotinamide]: 13 nM, 5 nM and 120 nM.
Turning to `O=C(Nc1cncc(-c2cc(F)ccc2F)c1)c1ccnc(NC(=O)C2CCC(F)(F)C2)c1` (stereo not drawn) [Example 236, 2-(3,3-difluorocyclopentanecarboxamido)-N-(5-(2,5-difluorophenyl)pyridin-3-yl)isonicotinamide], the IC50 worked out at 4.3 nM on GSK3β (setting [2]), 2.1 nM on GSK3α (setting [1]) and 180 nM in the test with pTau (read-out: pTau).
On the same counts, the results for `O=C(Nc1cnccc1-c1ccccc1)c1ccnc(NC(=O)C2CC2(F)F)c1` (stereo not drawn) [Example 98, 2-(2,2-Difluorocyclopropanecarboxamido)-N-(4-phenylpyridin-3-yl)isonicotinamide] are 11 nM, 17 nM and 1400 nM.
As to `C[C@H]1COCCN1c1ccncc1NC(=O)c1ccnc(NC(=O)C2CC2)c1` [Example 54, (S)-2-(cyclopropanecarboxamido)-N-(4-(3-methylmorpholino)pyridin-3-yl)isonicotinamide], the IC50 against GSK3β stood at 0.06 nM; at GSK3α (setting [1]), 0.07 nM; with pTau (read-out: pTau), 2 nM.
In the case of `CC(C)(F)C(=O)Nc1cc(C(=O)Nc2cnccc2-c2ccccc2)ccn1` [Example 205, 2-(2-Fluoro-2-methylpropanamido)-N-(4-phenylpyridin-3-yl)isonicotinamide], the results for the IC50 against GSK3β, on GSK3α (setting [1]) and in the test on pTau (read-out: pTau (nM)) were 49 nM, 52 nM and 5100 nM, respectively.
Regarding `O=C(Nc1cncc(Br)c1)c1ccnc(NC(=O)C2CC2)c1` [Example 15, 2-(Cyclopropanecarboxamido)-N-(5-bromopyridin-3-yl)isonicotinamide], the IC50 at GSK3β (setting [2]) is 16 nM; at GSK3α (setting [1]), 11 nM; in the test on pTau (read-out: pTau), 610 nM.
The matching figures for `COc1cncc(NC(=O)c2ccnc(NC(=O)C3CC3)c2)c1` [Example 13, 2-(Cyclopropanecarboxamido)-N-(5-methoxypyridin-3-yl)isonicotinamide]: 13 nM, 7.3 nM and 550 nM.
On the same counts, the results for `O=C(Nc1cnn(CC(F)(F)F)c1)c1ccnc(NC(=O)C2CC2)c1` [Example 172, 2-(cyclopropanecarboxamido)-N-(1-(2,2,2-trifluoroethyl)-1H-pyrazol-4-yl)isonicotinamide] are 35 nM, 14 nM and 700 nM.
Turning to `O=C(Nc1c(N2CCOCC2)ccnc1F)c1ccnc(NC(=O)C2CC2)c1` [Example 88, 2-(Cyclopropanecarboxamido)-N-(2-fluoro-4-morpholinopyridin-3-yl)isonicotinamide], the IC50 at GSK3β (setting [2]) came out at 9.1 nM; on GSK3α (setting [1]), 3.9 nM; in the test with pTau (read-out: pTau), 170 nM.
